The subject of experiment [1] is Puccinia recondita f. Sp. Tritici. As to the kind of experiment: Fungicidal activity, wheat leaf disc preventative (brown rust). Format: in vivo. To be noted: foliar, 200 ppm in the applied formulation, wheat leaf segments cv. Kanzler, compared to untreated control, 7 to 9 days after application, read-out: disease control. As to the method: Leaf disks or leaf segments of various plant species are cut from plants grown in a greenhouse. The cut leaf disks or segments are placed in multiwell plates (24-well format) onto water agar. The leaf disks are sprayed with a test solution before (preventative) or after (curative) inoculation. Compounds to be tested are prepared as DMSO solutions (max. 10 mg/ml) which are diluted to the appropriate concentration with 0.025% Tween20 just before spraying. The inoculated leaf disks or segments are incubated under defined conditions (temperature, relative humidity, light, etc.) according to the respective test system. A single evaluation of disease level is carried out 3 to 14 days after inoculation, depending on the pathosystem. Percent disease control relative to the untreated check leaf disks or segments is then calculated.
Wheat leaf segments cv. Kanzler were placed on agar in multiwell plates (24-well format) and sprayed with the formulated test compound diluted in water. The leaf disks were inoculated with a spore suspension of the fungus 1 day after application. The inoculated leaf segments were incubated at 19° C. and 75% relative humidity (rh) under a light regime of 12 hours light/12 hours darkness in a climate cabinet and the activity of a compound was assessed as percent disease control compared to untreated when an appropriate level of disease damage appears in untreated check leaf segments (7 to 9 days after application).
The following compounds at 200 ppm in the applied formulation give at least 80% disease control in this test when compared to untreated control leaf disks under the same conditions, which show extensive disease development.

Experiment [2] relates to Glomerella lacenarium (Colletotrichum lacenarium). As to the kind of experiment: Fungicidal activity, liquid culture, cucumber preventative (anthracnose). To be noted: 20 ppm in the applied formulation, liquid culture in PDB, inhibition of growth measured photometrically 3 to 4 days after application, compared to untreated control, read-out: disease control. It counts as cell-based. As to the method:
Mycelia fragments or conidia suspensions of a fungus prepared either freshly from liquid cultures of the fungus or from cryogenic storage, are directly mixed into nutrient broth. DMSO solutions of the test compound (max. 10 mg/ml) are diluted with 0.025% Tween20 by a factor of 50 and 10 μl of this solution is pipetted into a microtiter plate (96-well format). The nutrient broth containing the fungal spores/mycelia fragments is then added to give an end concentration of the tested compound. The test plates are incubated in the dark at 24° C. and 96% relative humidity. The inhibition of fungal growth is determined photometrically after 2 to 7 days, depending on the pathosystem, and percent antifungal activity relative to the untreated check is calculated.
Conidia of the fungus from cryogenic storage are directly mixed into nutrient broth (PDB—potato dextrose broth). After placing a (DMSO) solution of test compound into a microtiter plate (96-well format), the nutrient broth containing the fungal spores is added. The test plates are incubated at 24° C. and the inhibition of growth is measured photometrically 3 to 4 days after application.
The following compounds at 20 ppm in the applied formulation give at least 80% disease control in this test when compared to untreated control under the same conditions, which show extensive disease development.

A value given as a limit tells only on which side of the number the result lay.

With `O=C(C1CCC1)N(Cc1ccc(-c2noc(C(F)(F)F)n2)s1)OCC(F)F` [Compound 5.47, N-(2,2-difluoroethoxy)-N-[[5-[5-(trifluoromethyl)-1,2,4-oxadiazol-3-yl]-2-thienyl]methyl]cyclobutanecarboxamide], the pest or weed control at 200 ppm in experiment [1] is at least 80%. The inhibition of growth at 20 ppm in experiment [2] was at least 80%.
As to `O=C(C(=O)N(Cc1ccc(-c2noc(C(F)(F)F)n2)s1)C1CC1)c1ccco1` [Compound 6.60, N-cyclopropyl-2-(2-furyl)-2-oxo-N-[[5-[5-(trifluoromethyl)-1,2,4-oxadiazol-3-yl]-2-thienyl]methyl]acetamide], the pest or weed control at 200 ppm in experiment [1] was at least 80%. In experiment [2], the inhibition of growth at 20 ppm was at least 80%.
Take `O=C(C1CCCO1)N(Cc1ccc(-c2noc(C(F)(F)F)n2)s1)OCC(F)F` (stereo not shown) [Compound 5.49, N-(2,2-difluoroethoxy)-N-[[5-[5-(trifluoromethyl)-1,2,4-oxadiazol-3-yl)-2-thienyl]methyl]tetrahydrofuran-2-carboxamide]: in experiment [1], the pest or weed control at 200 ppm is at least 80%. In addition, in experiment [2], the inhibition of growth at 20 ppm was at least 80%.
For the compound `CCCS(=O)(=O)N(Cc1ccc(-c2noc(C(F)(F)F)n2)s1)C1CC1` [Compound 6.39, N-cyclopropyl-N-[[5-[5-(trifluoromethyl)-1,2,4-oxadiazol-3-yl]-2-thienyl]methyl]propane-1-sulfonamide], the pest or weed control at 200 ppm in experiment [1] was at least 80%. For the same compound, the inhibition of growth at 20 ppm in experiment [2] is at least 80%.
`CON(Cc1ccc(-c2noc(C(F)(F)F)n2)s1)S(=O)(=O)N(C)C` [Compound 1.43, N-(dimethylsulfamoyl)-N-methoxy-1-[5-[5-(trifluoromethyl)-1,2,4-oxadiazol-3-yl]-2-thienyl]methanamine]: the pest or weed control at 200 ppm in experiment [1] was at least 80%. Moreover, in experiment [2], the inhibition of growth at 20 ppm is at least 80%.
For the compound `CCCS(=O)(=O)N(C)Cc1ccc(-c2noc(C(F)(F)F)n2)s1` [Compound 6.31, N-methyl-N-[[5-[5-(trifluoromethyl)-1,2,4-oxadiazol-3-yl]-2-thienyl]methyl]propane-1-sulfonamide], in experiment [1], the pest or weed control at 200 ppm was at least 80%. In experiment [2], the inhibition of growth at 20 ppm was at least 80%.
In the case of `O=C(C(=O)N(Cc1ccc(-c2noc(C(F)(F)F)n2)s1)OCC(F)F)c1cccs1` [Compound 6.63, N-(2,2-difluoroethoxy)-2-oxo-2-(2-thienyl)-N-[[5-[5-(trifluoromethyl)-1,2,4-oxadiazol-3-yl]-2-thienyl]methyl]acetamide], the pest or weed control at 200 ppm in experiment [1] is at least 80%. Besides, the inhibition of growth at 20 ppm in experiment [2] was at least 80%.
For the compound `CN(Cc1ccc(-c2noc(C(F)(F)F)n2)s1)C(=O)C(=O)Cc1ccccc1` [Compound 6.50, N-methyl-2-oxo-3-phenyl-N-[[5-[5-(trifluoromethyl)-1,2,4-oxadiazol-3-yl]-2-thienyl]methyl]propanamide], the pest or weed control at 200 ppm in experiment [1] is at least 80%. In addition, the inhibition of growth at 20 ppm in experiment [2] was at least 80%.
Turning to `CC(C)(C)C(=O)C(=O)N(Cc1ccc(-c2noc(C(F)(F)F)n2)s1)C1CC1` [Compound 6.55, N-cyclopropyl-3,3-dimethyl-2-oxo-N-[[5-[5-(trifluoromethyl)-1,2,4-oxadiazol-3-yl]-2-thienyl]methyl]butanamide], in experiment [1], the pest or weed control at 200 ppm was at least 80%. For the same compound, in experiment [2], the inhibition of growth at 20 ppm is at least 80%.
Regarding `O=C(C1CCOC1)N(Cc1ccc(-c2noc(C(F)(F)F)n2)s1)OCC(F)F` (stereo not shown) [Compound 5.46, N-(2,2-difluoroethoxy)-N-[[5-[5-(trifluoromethyl)-1,2,4-oxadiazol-3-yl]-2-thienyl]methyl]tetrahydrofuran-3-carboxamide], the pest or weed control at 200 ppm in experiment [1] was at least 80%. The inhibition of growth at 20 ppm in experiment [2] is at least 80%.
For the compound `CCS(=O)(=O)N(C)Cc1ccc(-c2noc(C(F)(F)F)n2)s1` [Compound 6.25, N-methyl-N-[[5-[5-(trifluoromethyl)-1,2,4-oxadiazol-3-yl]-2-thienyl]methyl]ethanesulfonamide], the pest or weed control at 200 ppm in experiment [1] is at least 80%. Besides, in experiment [2], the inhibition of growth at 20 ppm is at least 80%.

Values taken from US20200187502A1, “MICROBIOCIDAL OXADIAZOLE DERIVATIVES” (SYNGENTA PARTICIPATIONS AG, priority 2017, published 2020).
